Measured values from patent publication US9062048B2, “Cyclohexyl-azetidinyl antagonists of CCR2” (Janssen Pharmaceutica NV, priority 2010, dated 2015).

Target: CCR2 (Homo sapiens (Human), UniProt P41597)
Test: MCP-1 Receptor Binding Assay in THP-1 Cells;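 also: THP-1 is a human monocytic cell line, and nonspecific binding was defined with 1 µM unlabeled MCP-1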
Details: 0.5 nM 125I labeled MCP-1, 2 hours at 30° C., read-out: Inhibition of MCP-1 Binding IC50 MCP1B

Sequence of CCR2 (P41597 whole entry): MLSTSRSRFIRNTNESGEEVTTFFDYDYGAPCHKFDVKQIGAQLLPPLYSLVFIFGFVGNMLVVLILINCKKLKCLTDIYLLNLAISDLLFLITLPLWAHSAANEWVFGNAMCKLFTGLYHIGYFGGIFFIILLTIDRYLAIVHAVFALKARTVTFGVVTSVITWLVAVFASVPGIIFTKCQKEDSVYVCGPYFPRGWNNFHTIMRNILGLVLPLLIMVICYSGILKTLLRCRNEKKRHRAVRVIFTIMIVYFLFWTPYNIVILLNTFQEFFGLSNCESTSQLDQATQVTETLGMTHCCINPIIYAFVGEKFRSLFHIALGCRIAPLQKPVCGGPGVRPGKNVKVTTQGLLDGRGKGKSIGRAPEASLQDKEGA

SMILES	IC50 [nM]
CC(C)[C@H](O)[C@H]1CC[C@H](N2CC(NC(=O)CNc3nncc4ccc(C(F)(F)F)cc34)C2)CC1 (racemic) [Example 160, N-(1-((1S,4r)-4-((S)-1-hydroxy-2-methylpropyl)cyclohexyl)azetidin-3-yl)-2-((7-(trifluoromethyl)phthalazin-1-yl)amino)acetamide]	22
N#Cc1cc(NCC(=O)N[C@H]2C[C@@H](N3CCC(O)(c4cncs4)CC3)C2)c2cc(C(F)(F)F)ccc2n1 [Example 163, 2-((2-cyano-6-(trifluoromethyl)quinolin-4-yl)amino)-N-((1s,3s)-3-(4-hydroxy-4-(thiazol-5-yl)piperidin-1-yl)cyclobutyl)acetamide]	2600
CC(C)(O)[C@H]1CC[C@@H](N2CC(NC(=O)CNc3ncnc4ccc(C(F)(F)F)cc34)C2)CC1 [Example 29, N-(1-((1s,4s)-4-(2-hydroxypropan-2-yl)cyclohexyl)azetidin-3-yl)-2-((6-(trifluoromethyl)quinazolin-4-yl)amino)acetamide]	33
C=CCC(O)[C@H]1CC[C@@H](N2CC(NC(=O)CNc3ncnc4ccc(C(F)(F)F)cc34)C2)CC1 (stereo partly drawn) [Example 91, N-(1-((1S,4s)-4-(1-hydroxybut-3-en-1-yl)cyclohexyl)azetidin-3-yl)-2-((6-(trifluoromethyl)quinazolin-4-yl)amino)acetamide]	16
CCCN(C=O)[C@H]1CC[C@@H](N2CC(NC(=O)CNc3ncnc4ccc(C(F)(F)F)cc34)C2)CC1 [Example 51, N-(1-((1s,4s)-4-(N-propylformamido)cyclohexyl)azetidin-3-yl)-2-((6-(trifluoromethyl)quinazolin-4-yl)amino)acetamide]	37
N#Cc1cc(NCC(=O)N[C@H]2C[C@H](N3CCC(O)(c4cncs4)CC3)C2)c2cc(C(F)(F)F)ccc2n1 [Example 164, 2-((2-cyano-6-(trifluoromethyl)quinolin-4-yl)amino)-N-((1r,3r)-3-(4-hydroxy-4-(thiazol-5-yl)piperidin-1-yl)cyclobutyl)acetamide]	> 25000
Nc1ccc(C2CCC(N3CC(NC(=O)CNc4ncnc5ccc(C(F)(F)F)cc45)C3)CC2)nc1 (stereo not shown) [Example 70, N-(1-(4-(5-aminopyridin-2-yl)cyclohexyl)azetidin-3-yl)-2-((6-(trifluoromethyl)quinazolin-4-yl)amino)acetamide]	9
C=C(C)[C@H]1CC[C@@H](N2CC(NC(=O)CNc3ncnc4ccc(C(F)(F)F)cc34)C2)CC1 [Example 36, N-(1-((1s,4s)-4-(prop-1-en-2-yl)cyclohexyl)azetidin-3-yl)-2-((6-(trifluoromethyl)quinazolin-4-yl)amino)acetamide]	75
CC(C)C(O)[C@H]1CC[C@@H](N2CC(NC(=O)CNc3cnnc4ccc(C(F)(F)F)cc34)C2)CC1 (stereo partly drawn) [Example 157, N-(1-((1R,4s)-4-((S)-1-hydroxy-2-methylpropyl)cyclohexyl)azetidin-3-yl)-2-((6-(trifluoromethyl)cinnolin-4-yl)amino)acetamide]	530
CCC(NC(=O)N(C)C)[C@H]1CC[C@@H](N2CC(NC(=O)CNc3ncnc4ccc(C(F)(F)F)cc34)C2)CC1 (stereo partly drawn) [Example 143, N-(1-((1R,4s)-4-((S)-1-(3,3-dimethylureido)propyl)cyclohexyl)azetidin-3-yl)-2-((6-(trifluoromethyl)quinazolin-4-yl)amino)acetamide]	13800
CCC(O)[C@H]1CC[C@@H](N2CC(NC(=O)CNc3cc(C(F)(F)F)nc4ccc(C(F)(F)F)cc34)C2)CC1 (stereo partly shown) [Example 25, 2-((2,6-bis(trifluoromethyl)quinolin-4-yl)amino)-N-(1((-1R,4s)-4-(1-hydroxypropyl)cyclohexyl)azetidin-3-yl)acetamide]	99
CC(C)C(=O)NC[C@H]1CC[C@@H](N2CC(NC(=O)CNc3ncnc4ccc(C(F)(F)F)cc34)C2)CC1 [Example 114]	280

Other lines, results leading:

IC50 [nM]	SMILES
28	C#CC(O)[C@H]1CC[C@@H](N2CC(NC(=O)CNc3ncnc4ccc(C(F)(F)F)cc34)C2)CC1 (stereo partly drawn) [Example 95, N-(1-((1R,4s)-4-(1-hydroxyprop-2-yn-1-yl)cyclohexyl)azetidin-3-yl)-2-((6-(trifluoromethyl)quinazolin-4-yl)amino)acetamide]
120	CC(C)(C)OC(=O)NC[C@H]1CC[C@@H](N2CC(NC(=O)CNc3ncnc4ccc(C(F)(F)F)cc34)C2)CC1 [Example 113, tert-butyl (((1s,4s)-4-(3-(2-((6-(trifluoromethyl)quinazolin-4-yl)amino)acetamido)azetidin-1-yl)cyclohexyl)methyl)carbamate]
24	O=C(CNc1ncnc2ccc(C(F)(F)F)cc12)NC1CN([C@H]2CC[C@@H](C(O)C3CCCC3)CC2)C1 (stereo partly drawn) [Example 94, N-(1-((1S,4s)-4-(cyclopentyl(hydroxy)methyl)cyclohexyl)azetidin-3-yl)-2-((6-(trifluoromethyl)quinazolin-4-yl)amino)acetamide]
13	CCCC(O)[C@H]1CC[C@@H](N2CC(NC(=O)CNc3ncnc4ccc(C(F)(F)F)cc34)C2)CC1 (stereo partly drawn) [Example 90, N-(1-((1S,4s)-4-(1-hydroxybutyl)cyclohexyl)azetidin-3-yl)-2-((6-(trifluoromethyl)quinazolin-4-yl)amino)acetamide]
810	CCCC(=O)N(C)[C@H]1CC[C@@H](N2CC(NC(=O)CNc3ncnc4ccc(C(F)(F)F)cc34)C2)CC1 [Example 46, N-methyl-N-((1s,4s)-4-(3-(2-((6-(trifluoromethyl)quinazolin-4-yl)amino)acetamido)azetidin-1-yl)cyclohexyl)butyramide]
430	CC(C)[C@@H](O)[C@H]1CC[C@H](N2CC(NC(=O)CNc3nccc4ncc(C(F)(F)F)cc34)C2)CC1 [Example 156, N-(1-((1R,4r)-4-((R)-1-hydroxy-2-methylpropyl)cyclohexyl)azetidin-3-yl)-2-((3-(trifluoromethyl)-1,6-naphthyridin-5-yl)amino)acetamide]
160	CCN(C(=O)OCc1ccccc1)[C@H]1CC[C@@H](N2CC(NC(=O)CNc3ncnc4ccc(C(F)(F)F)cc34)C2)CC1 [Example 47, Benzyl ethyl((1s,4s)-4-(3-(2-((6-(trifluoromethyl)quinazolin-4-yl)amino)acetamido)azetidin-1-yl)cyclohexyl)carbamate]
72	O=C(CNc1ncnc2ccc(C(F)(F)F)cc12)NC1CN([C@H]2CC[C@@H](N3CCS(=O)(=O)CC3)CC2)C1 [Example 134, N-(1-((1s,4s)-4-(1,1-dioxidothiomorpholino)cyclohexyl)azetidin-3-yl)-2-((6-(trifluoromethyl)quinazolin-4-yl)amino)acetamide]
63	O=C(CNc1ncnc2ccc(C(F)(F)F)cc12)NC1CN(C2CCCCC2)C1 [Example 101, N-(1-cyclohexylazetidin-3-yl)-2-((6-(trifluoromethyl)quinazolin-4-yl)amino)acetamide]
644	CCC(NC(=O)OC)[C@H]1CC[C@@H](N2CC(NC(=O)CNc3ncnc4ccc(C(F)(F)F)cc34)C2)CC1 (stereo partly drawn) [Example 104, methyl (−1-((1s,4S)-4-(3-(2-((6-(trifluoromethyl)quinazolin-4-yl)amino)acetamido)azetidin-1-yl)cyclohexyl)propyl)carbamate]
